Results published in paper PMC12748989 (Nature Communications, 2025).

How the values were obtained:
[1] = tested on: MDA-MB-231 cells
[2] = tested on: PBMC; conditions: 12.5 µM

| Compound | Average (percentage cell inhibition), Dmastoparan MDA-MB231 12.5uM [1] [%] | Average (percentage cell inhibition), Mastoparan PBMC [2] [%] |
| --- | --- | --- |
| CC[C@H](C)[C@H](NC(=O)[C@H](CCCCN)NC(=O)[C@H](CCCCN)NC(=O)[C@H](C)NC(=O)[C@H](CC(C)C)NC(=O)[C@H](C)NC(=O)[C@H](C)NC(=O)[C@H](CC(C)C)NC(=O)[C@H](C)NC(=O)[C@H](CCCCN)NC(=O)[C@H](CC(C)C)NC(=O)[C@H](CC(N)=O)NC(=O)[C@H](C)N)C(=O)N[C@@H](CC(C)C)C(N)=O [A1] | 30.2333 | 5.463 |
| CC[C@H](C)[C@H](N)C(=O)N[C@@H](C)C(=O)N[C@@H](CC(C)C)C(=O)N[C@@H](CCCCN)C(=O)N[C@@H](C)C(=O)N[C@@H](CC(C)C)C(=O)N[C@@H](C)C(=O)N[C@@H](C)C(=O)N[C@@H](CC(C)C)C(=O)N[C@@H](C)C(=O)N[C@@H](CCCCN)C(=O)N[C@@H](CCCCN)C(=O)N[C@H](C(=O)N[C@@H](CC(C)C)C(N)=O)[C@@H](C)CC [A2] | 38.1038 | 9.183 |
| CC[C@H](C)[C@H](N)C(=O)N[C@@H](CC(N)=O)C(=O)N[C@@H](C)C(=O)N[C@@H](CCCCN)C(=O)N[C@@H](C)C(=O)N[C@@H](CC(C)C)C(=O)N[C@@H](C)C(=O)N[C@@H](C)C(=O)N[C@@H](CC(C)C)C(=O)N[C@@H](C)C(=O)N[C@@H](CCCCN)C(=O)N[C@@H](CCCCN)C(=O)N[C@H](C(=O)N[C@@H](CC(C)C)C(N)=O)[C@@H](C)CC [A3] | 17.9778 | -7.622 |
| CC[C@H](C)[C@H](N)C(=O)N[C@@H](CC(N)=O)C(=O)N[C@@H](CC(C)C)C(=O)N[C@@H](C)C(=O)N[C@@H](C)C(=O)N[C@@H](CC(C)C)C(=O)N[C@@H](C)C(=O)N[C@@H](C)C(=O)N[C@@H](CC(C)C)C(=O)N[C@@H](C)C(=O)N[C@@H](CCCCN)C(=O)N[C@@H](CCCCN)C(=O)N[C@H](C(=O)N[C@@H](CC(C)C)C(N)=O)[C@@H](C)CC [A4] | 36.5883 | 11.5193 |
| CC[C@H](C)[C@H](N)C(=O)N[C@@H](CC(N)=O)C(=O)N[C@@H](CC(C)C)C(=O)N[C@@H](CCCCN)C(=O)N[C@@H](C)C(=O)N[C@@H](C)C(=O)N[C@@H](C)C(=O)N[C@@H](C)C(=O)N[C@@H](CC(C)C)C(=O)N[C@@H](C)C(=O)N[C@@H](CCCCN)C(=O)N[C@@H](CCCCN)C(=O)N[C@H](C(=O)N[C@@H](CC(C)C)C(N)=O)[C@@H](C)CC [A6] | 16.1268 | -1.6231 |
| CC[C@H](C)[C@H](N)C(=O)N[C@@H](CC(N)=O)C(=O)N[C@@H](CC(C)C)C(=O)N[C@@H](CCCCN)C(=O)N[C@@H](C)C(=O)N[C@@H](CC(C)C)C(=O)N[C@@H](C)C(=O)N[C@@H](C)C(=O)N[C@@H](C)C(=O)N[C@@H](C)C(=O)N[C@@H](CCCCN)C(=O)N[C@@H](CCCCN)C(=O)N[C@H](C(=O)N[C@@H](CC(C)C)C(N)=O)[C@@H](C)CC [A9] | 23.1985 | -3.746 |
| CC[C@H](C)[C@H](N)C(=O)N[C@@H](CC(N)=O)C(=O)N[C@@H](CC(C)C)C(=O)N[C@@H](CCCCN)C(=O)N[C@@H](C)C(=O)N[C@@H](CC(C)C)C(=O)N[C@@H](C)C(=O)N[C@@H](C)C(=O)N[C@@H](CC(C)C)C(=O)N[C@@H](C)C(=O)N[C@@H](C)C(=O)N[C@@H](CCCCN)C(=O)N[C@H](C(=O)N[C@@H](CC(C)C)C(N)=O)[C@@H](C)CC [A11] | 45.8441 | 11.43 |
| CC[C@H](C)[C@H](N)C(=O)N[C@@H](CC(N)=O)C(=O)N[C@@H](CC(C)C)C(=O)N[C@@H](CCCCN)C(=O)N[C@@H](C)C(=O)N[C@@H](CC(C)C)C(=O)N[C@@H](C)C(=O)N[C@@H](C)C(=O)N[C@@H](CC(C)C)C(=O)N[C@@H](C)C(=O)N[C@@H](CCCCN)C(=O)N[C@@H](C)C(=O)N[C@H](C(=O)N[C@@H](CC(C)C)C(N)=O)[C@@H](C)CC [A12] | 42.9356 | 17.0691 |
| CC[C@H](C)[C@H](N)C(=O)N[C@@H](CC(N)=O)C(=O)N[C@@H](CC(C)C)C(=O)N[C@@H](CCCCN)C(=O)N[C@@H](C)C(=O)N[C@@H](CC(C)C)C(=O)N[C@@H](C)C(=O)N[C@@H](C)C(=O)N[C@@H](CC(C)C)C(=O)N[C@@H](C)C(=O)N[C@@H](CCCCN)C(=O)N[C@@H](CCCCN)C(=O)N[C@@H](C)C(=O)N[C@@H](CC(C)C)C(N)=O [A13] | 24.196 | 5.573 |
| CC[C@H](C)[C@H](N)C(=O)N[C@@H](CC(N)=O)C(=O)N[C@@H](CC(C)C)C(=O)N[C@@H](CCCCN)C(=O)N[C@@H](C)C(=O)N[C@@H](CC(C)C)C(=O)N[C@@H](C)C(=O)N[C@@H](C)C(=O)N[C@@H](CC(C)C)C(=O)N[C@@H](C)C(=O)N[C@@H](CCCCN)C(=O)N[C@@H](CCCCN)C(=O)N[C@H](C(=O)N[C@@H](C)C(N)=O)[C@@H](C)CC [A14] | 12.3553 | 6.423 |
| CC[C@H](C)[C@H](NC(=O)[C@H](CCCCN)NC(=O)[C@H](CCCCN)NC(=O)[C@H](C)NC(=O)[C@H](CC(C)C)NC(=O)[C@H](C)NC(=O)[C@H](C)NC(=O)[C@H](CC(C)C)NC(=O)[C@H](C)NC(=O)[C@H](CCCCN)NC(=O)[C@H](CC(C)C)NC(=O)[C@H](CC(N)=O)NC(=O)[C@@H](N)CCC(=O)O)C(=O)N[C@@H](CC(C)C)C(N)=O [E1] | 25.5598 | 8.369 |
| CC[C@H](C)[C@H](N)C(=O)N[C@@H](CCC(=O)O)C(=O)N[C@@H](CC(C)C)C(=O)N[C@@H](CCCCN)C(=O)N[C@@H](C)C(=O)N[C@@H](CC(C)C)C(=O)N[C@@H](C)C(=O)N[C@@H](C)C(=O)N[C@@H](CC(C)C)C(=O)N[C@@H](C)C(=O)N[C@@H](CCCCN)C(=O)N[C@@H](CCCCN)C(=O)N[C@H](C(=O)N[C@@H](CC(C)C)C(N)=O)[C@@H](C)CC [E2] | 39.1083 | 11.8092 |
| CC[C@H](C)[C@H](N)C(=O)N[C@@H](CC(N)=O)C(=O)N[C@@H](CCC(=O)O)C(=O)N[C@@H](CCCCN)C(=O)N[C@@H](C)C(=O)N[C@@H](CC(C)C)C(=O)N[C@@H](C)C(=O)N[C@@H](C)C(=O)N[C@@H](CC(C)C)C(=O)N[C@@H](C)C(=O)N[C@@H](CCCCN)C(=O)N[C@@H](CCCCN)C(=O)N[C@H](C(=O)N[C@@H](CC(C)C)C(N)=O)[C@@H](C)CC [E3] | 14.5974 | 5.899 |
| CC[C@H](C)[C@H](N)C(=O)N[C@@H](CC(N)=O)C(=O)N[C@@H](CC(C)C)C(=O)N[C@@H](CCC(=O)O)C(=O)N[C@@H](C)C(=O)N[C@@H](CC(C)C)C(=O)N[C@@H](C)C(=O)N[C@@H](C)C(=O)N[C@@H](CC(C)C)C(=O)N[C@@H](C)C(=O)N[C@@H](CCCCN)C(=O)N[C@@H](CCCCN)C(=O)N[C@H](C(=O)N[C@@H](CC(C)C)C(N)=O)[C@@H](C)CC [E4] | 27.9326 | 5.1636 |
| CC[C@H](C)[C@H](N)C(=O)N[C@@H](CC(N)=O)C(=O)N[C@@H](CC(C)C)C(=O)N[C@@H](CCCCN)C(=O)N[C@@H](CCC(=O)O)C(=O)N[C@@H](CC(C)C)C(=O)N[C@@H](C)C(=O)N[C@@H](C)C(=O)N[C@@H](CC(C)C)C(=O)N[C@@H](C)C(=O)N[C@@H](CCCCN)C(=O)N[C@@H](CCCCN)C(=O)N[C@H](C(=O)N[C@@H](CC(C)C)C(N)=O)[C@@H](C)CC [E5] | 15.4865 | 3.135 |
| CC[C@H](C)[C@H](N)C(=O)N[C@@H](CC(N)=O)C(=O)N[C@@H](CC(C)C)C(=O)N[C@@H](CCCCN)C(=O)N[C@@H](C)C(=O)N[C@@H](CCC(=O)O)C(=O)N[C@@H](C)C(=O)N[C@@H](C)C(=O)N[C@@H](CC(C)C)C(=O)N[C@@H](C)C(=O)N[C@@H](CCCCN)C(=O)N[C@@H](CCCCN)C(=O)N[C@H](C(=O)N[C@@H](CC(C)C)C(N)=O)[C@@H](C)CC [E6] | 39.2363 | 3.211 |
| CC[C@H](C)[C@H](N)C(=O)N[C@@H](CC(N)=O)C(=O)N[C@@H](CC(C)C)C(=O)N[C@@H](CCCCN)C(=O)N[C@@H](C)C(=O)N[C@@H](CC(C)C)C(=O)N[C@@H](CCC(=O)O)C(=O)N[C@@H](C)C(=O)N[C@@H](CC(C)C)C(=O)N[C@@H](C)C(=O)N[C@@H](CCCCN)C(=O)N[C@@H](CCCCN)C(=O)N[C@H](C(=O)N[C@@H](CC(C)C)C(N)=O)[C@@H](C)CC [E7] | 27.5958 | 6.221 |
| CC[C@H](C)[C@H](N)C(=O)N[C@@H](CC(N)=O)C(=O)N[C@@H](CC(C)C)C(=O)N[C@@H](CCCCN)C(=O)N[C@@H](C)C(=O)N[C@@H](CC(C)C)C(=O)N[C@@H](C)C(=O)N[C@@H](CCC(=O)O)C(=O)N[C@@H](CC(C)C)C(=O)N[C@@H](C)C(=O)N[C@@H](CCCCN)C(=O)N[C@@H](CCCCN)C(=O)N[C@H](C(=O)N[C@@H](CC(C)C)C(N)=O)[C@@H](C)CC [E8] | 39.5903 | 13.1597 |
| CC[C@H](C)[C@H](N)C(=O)N[C@@H](CC(N)=O)C(=O)N[C@@H](CC(C)C)C(=O)N[C@@H](CCCCN)C(=O)N[C@@H](C)C(=O)N[C@@H](CC(C)C)C(=O)N[C@@H](C)C(=O)N[C@@H](C)C(=O)N[C@@H](CCC(=O)O)C(=O)N[C@@H](C)C(=O)N[C@@H](CCCCN)C(=O)N[C@@H](CCCCN)C(=O)N[C@H](C(=O)N[C@@H](CC(C)C)C(N)=O)[C@@H](C)CC [E9] | 4.314 | 0.4268 |
| CC[C@H](C)[C@H](N)C(=O)N[C@@H](CC(N)=O)C(=O)N[C@@H](CC(C)C)C(=O)N[C@@H](CCCCN)C(=O)N[C@@H](C)C(=O)N[C@@H](CC(C)C)C(=O)N[C@@H](C)C(=O)N[C@@H](C)C(=O)N[C@@H](CC(C)C)C(=O)N[C@@H](CCC(=O)O)C(=O)N[C@@H](CCCCN)C(=O)N[C@@H](CCCCN)C(=O)N[C@H](C(=O)N[C@@H](CC(C)C)C(N)=O)[C@@H](C)CC [E10] | 7.891 | -0.2344 |
